Data published in patent publication EP2430044B1, “PEPTIDES INCREASING THE SECRETION AND/OR EXPRESSION OF AT LEAST ONE GAS[…] AND/OR INDUCING THE INCREASE OF MUCUS CELLS OR PANETH CELLS” (Institut National de la Recherche Agronomique (INRA), priority 2009, dated 2010).

Key:
Format in all cases: cell-based, humaine
MUC4 = MUC4 expression in HT29-MTX cells (RT-PCR)
Method: (§1) Les cellules HT29-MTX et HT29-CI16E étaient cultivées en flasques de 25 cm^2 avec du milieu minimum essentiel DMEM supplémenté avec 10% de SVF (sérum de veau foetal) et 1 % d'antibiotiques (pénicilline 10 000 Ul/ml et streptomycine […]). Les cellules étaient incubées à 37°C dans une atmosphère humide (5 % de CO2 et […]). A confluence, les cellules soumises au préalable à l'action de la trypsine (trypsine-EDTA) étaient cultivées dans des plaques 12 puits à raison de 1 ml de milieu de culture complet par puits. Afin de maintenir les cellules dans des conditions optimales de croissance, le milieu de culture était changé tous les 2 jours.
(§2) Les expériences ont été réalisées sur les plaques 12 puits 21 jours après confluence des cellules. La veille de la stimulation, les plaques étaient cultivées sans SVF. Le pool peptidique total des yaourts ainsi que les différentes fractions lyophilisées étaient d'abord repris dans de l'eau stérile en solution 10 fois concentrée (10[Y]), [Y] correspondant à la concentration des peptides dans le yaourt initial). L'osmolarité et le pH des échantillons (ajusté à la neutralité par NaOH) étaient contrôlés à ce stade. […]
(§3) Les ARN ont été isolés et rétro-transcrits comme décrit précédemment puis les ADNc ont été quantifiés en capillaires à l'aide du kit « FastStart DNA Master SYBR Green l » sur un appareil « lightCycler » (Roche). […]

MUC2 = MUC2 expression in HT29-MTX cells (RT-PCR); conditions: with cyprodime 10^-5 M
Method: as §1, §2, §3

HT29-MTX = assay: Mucin secretion by HT29-MTX cells (ELLA on culture supernatants); conditions: pre-incubation with cyprodime 10^-5 M
Method: as §1
as §2, with “stade. Des dilutions successives ([Y], [Y]/2 et [Y]/5) étaient ensuite réalisées dans du milieu de culture dépourvu de SVF. Le jour de l'expérience, le milieu était aspiré puis les cellules étaient lavées avec du PBS à 37°C.” for “stade.”

MUC5AC = MUC5AC expression in HT29-MTX cells (RT-PCR); conditions: with cyprodime, quantitative RT-PCR (Lightcycler)
Method: as §1, §2, §3

COc1cccc2c1[C@]13CCN(CC4CC4)[C@H](C2)[C@]1(OC)CCC(=O)C3 [cyprodime]
effet de la fraction C2 sur l'expression de MUC4 (MUC4; with cyprodime 10^-5 M): aboli | augmentation du niveau des transcrits codant MUC4 induite par la fraction F3 (MUC4; with cyprodime, quantitative RT-PCR (Lightcycler)): Un résultat identique | effet de la fraction C2 sur l'expression de MUC2 (MUC2): aboli | sécrétion de mucines induite par la fraction F3 (HT29-MTX; fraction F3 at concentration Y): inhibe | sécrétion de mucines induite par la fraction C2 (HT29-MTX; then fraction C2 at concentration Y, 4 h): inhibe | augmentation du niveau des transcrits codant MUC5AC induite par la fraction F3 (MUC5AC): abolit
